Laboratory results published in ChEMBL document CHEMBL1201861, “Genomics of Drug Sensitity in Cancer screening data, Wellcome Trust Sanger Institute”.

Columns and labels:
Kasumi 1 = assay: cells; format: functional, cell-based, Homo sapiens; details: Homo sapiens, Kasumi 1;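 note: growth inhibition of human Kasumi-1 cells, read out by a cell viability assay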
Description: SANGER: Inhibition of human KASUMI-1 cell growth in a cell viability assay.

NCI-H2196 = assay: cells; format: functional, cell-based, Homo sapiens; details: Homo sapiens, NCI-H2196; read-out: IC50;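 note: cell viability assay used as the readout of growth inhibition in NCI-H2196 cells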
Description: SANGER: Inhibition of human NCI-H2196 cell growth in a cell viability assay.

BFTC-905 = assay: cells; format: functional, cell-based; details: Homo sapiens
Description: SANGER: Inhibition of human BFTC-905 cell growth in a cell viability assay.

OVCAR-8 = assay: cells; format: functional, cell-based; details: Homo sapiens;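 note: growth inhibition of human OVCAR-8 cells, read out by a cell viability assay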
Description: SANGER: Inhibition of human OVCAR-8 cell growth in a cell viability assay.

NCI-H1792 = assay: cells; format: functional, cell-based; details: Homo sapiens;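 note: growth inhibition of human NCI-H1792 cells, read out as cell viability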
Description: SANGER: Inhibition of human NCI-H1792 cell growth in a cell viability assay.

HCC1954 = assay: cells; format: functional, cell-based; details: Homo sapiens;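 note: growth inhibition of human HCC1954 cells, read out with a cell viability assay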
Description: SANGER: Inhibition of human HCC1954 cell growth in a cell viability assay.

LK-2 = assay: cells; format: functional, cell-based; details: Homo sapiens;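 note: growth inhibition of LK-2 cells, read out with a viability assay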
Description: SANGER: Inhibition of human LK-2 cell growth in a cell viability assay.

HMV-2 cell line = assay: cells; format: functional, cell-based; details: Homo sapiens;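 note: growth inhibition of HMV-II cells, read out with a cell viability assay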
Description: SANGER: Inhibition of human HMV-II cell growth in a cell viability assay.

MHH-ES-1 = assay: cells; format: functional, cell-based; details: Homo sapiens
Description: SANGER: Inhibition of human MHH-ES-1 cell growth in a cell viability assay.

SAS = assay: cells; format: functional, cell-based; details: Homo sapiens;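 note: growth inhibition of SAS cells, read out with a cell viability assay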
Description: SANGER: Inhibition of human SAS cell growth in a cell viability assay.

A204 = assay: cells; format: functional, cell-based; details: Homo sapiens;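 note: growth inhibition of human A204 cells, read out with a cell viability assay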
Description: SANGER: Inhibition of human A204 cell growth in a cell viability assay.

SW837 = assay: cells; format: functional, cell-based; details: Homo sapiens;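 note: growth inhibition of SW837 cells, determined with a cell viability assay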
Description: SANGER: Inhibition of human SW837 cell growth in a cell viability assay.

NCI-H524 = assay: cells; format: functional, cell-based, Homo sapiens; details: Homo sapiens, NCI-H524;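 note: growth inhibition of human NCI-H524 cells, read out through a cell viability assay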
Description: SANGER: Inhibition of human NCI-H524 cell growth in a cell viability assay.

PF-382 = assay: cells; format: functional, cell-based, Homo sapiens; details: Homo sapiens, PF-382
Description: SANGER: Inhibition of human PF-382 cell growth in a cell viability assay.

SU-DHL-1 = assay: SANGER: Inhibition of human SU-DHL-1 cell growth in a cell viability assay.; format: functional, cell-based; details: Homo sapiens, SU-DHL-1
HSC-4 = assay: cells; format: functional, cell-based; details: Homo sapiens;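 note: growth inhibition of human HSC-4 cells, read out with a cell viability assay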
Description: SANGER: Inhibition of human HSC-4 cell growth in a cell viability assay.

NCI-H2087 = assay: cells; format: functional, cell-based; details: Homo sapiens;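 note: growth inhibition determined with a cell viability readout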
Description: SANGER: Inhibition of human NCI-H2087 cell growth in a cell viability assay.

SK-N-AS = assay: cells; format: functional, cell-based; details: Homo sapiens;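 note: growth inhibition of human SK-N-AS cells, measured with a cell viability assay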
Description: SANGER: Inhibition of human SK-N-AS cell growth in a cell viability assay.

J82 = assay: cells; format: functional, cell-based; details: Homo sapiens;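 note: growth inhibition of J82 cells, read out with a cell viability assay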
Description: SANGER: Inhibition of human J82 cell growth in a cell viability assay.

T84 = assay: cells; format: functional, cell-based; details: Homo sapiens;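 note: growth inhibition measured with a cell viability readout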
Description: SANGER: Inhibition of human T84 cell growth in a cell viability assay.

NCI-H1651 = assay: cells; format: functional, cell-based; details: Homo sapiens;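 note: Read-out is a cell viability assay, with IC50 expressing inhibition of NCI-H1651 cell growth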
Description: SANGER: Inhibition of human NCI-H1651 cell growth in a cell viability assay.

EB2 = assay: cells; format: functional, cell-based, Homo sapiens; details: Homo sapiens, EB2;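 note: growth inhibition of EB2 cells, read out with a cell viability assay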
Description: SANGER: Inhibition of human EB2 cell growth in a cell viability assay.

HC-1 = assay: cells; format: functional, cell-based, Homo sapiens; details: Homo sapiens, HC-1;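 note: growth inhibition of HC-1 cells measured by a cell viability assay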
Description: SANGER: Inhibition of human HC-1 cell growth in a cell viability assay.

NCI-H292 = assay: cells; format: functional, cell-based; details: Homo sapiens;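 note: growth inhibition of NCI-H292 cells, read out with a cell viability assay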
Description: SANGER: Inhibition of human NCI-H292 cell growth in a cell viability assay.

NCI-H28 = assay: cells; format: functional, cell-based; details: Homo sapiens;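 note: growth inhibition of human NCI-H28 cells, read out as cell viability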
Description: SANGER: Inhibition of human NCI-H28 cell growth in a cell viability assay.

OE33 = assay: cells; format: functional, cell-based; details: Homo sapiens;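 note: growth inhibition of human OE33 cells, measured by a cell viability assay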
Description: SANGER: Inhibition of human OE33 cell growth in a cell viability assay.

RL95-2 = assay: cells; format: functional, cell-based, Homo sapiens; details: Homo sapiens, RL95-2;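 note: RL95-2 growth inhibition determined through a cell viability readout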
Description: SANGER: Inhibition of human RL95-2 cell growth in a cell viability assay.

NCI-H358 = assay: cells; format: functional, cell-based; details: Homo sapiens;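 note: growth inhibition of NCI-H358 human cells, read out with a cell viability assay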
Description: SANGER: Inhibition of human NCI-H358 cell growth in a cell viability assay.

HOS = assay: cells; format: functional, cell-based; details: Homo sapiens;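 note: growth inhibition of human HOS cells, read out with a cell viability assay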
Description: SANGER: Inhibition of human HOS cell growth in a cell viability assay.

Calu-3 = assay: cells; format: functional, cell-based; details: Homo sapiens;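 note: growth inhibition of human Calu-3 cells, determined with a cell viability assay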
Description: SANGER: Inhibition of human Calu-3 cell growth in a cell viability assay.

5637 = assay: cells; format: functional, cell-based; details: Homo sapiens
Description: SANGER: Inhibition of human 5637 cell growth in a cell viability assay.

A2780 = assay: cells; format: functional, cell-based; details: Homo sapiens;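 note: growth inhibition of A2780 cells, read out with a cell viability assay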
Description: SANGER: Inhibition of human A2780 cell growth in a cell viability assay.

SCLC-21H = assay: cells; format: functional, cell-based, Homo sapiens; details: Homo sapiens, SCLC-21H;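 note: growth inhibition of cultured human SCLC-21H cells, read out with a cell viability assay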
Description: SANGER: Inhibition of human SCLC-21H cell growth in a cell viability assay.

BCPAP = assay: cells; format: functional, cell-based; details: Homo sapiens;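 note: growth inhibition of BCPAP cells, read out in a cell viability assay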
Description: SANGER: Inhibition of human BCPAP cell growth in a cell viability assay.

KOSC-2 = assay: cells; format: functional, cell-based; details: Homo sapiens;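 note: growth inhibition of KOSC-2 cells, read out by a cell viability assay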
Description: SANGER: Inhibition of human KOSC-2 cell growth in a cell viability assay.

HCT-116 = assay: cells; format: functional, cell-based; details: Homo sapiens
Description: SANGER: Inhibition of human HCT-116 cell growth in a cell viability assay.

RVH-421 = assay: cells; format: functional, cell-based; details: Homo sapiens
Description: SANGER: Inhibition of human RVH-421 cell growth in a cell viability assay.

HO-1-N-1 = assay: cells; format: functional, cell-based; details: Homo sapiens;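 note: growth inhibition of human HO-1-N-1 cells, read out with a cell viability assay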
Description: SANGER: Inhibition of human HO-1-N-1 cell growth in a cell viability assay.

769-P = assay: cells; format: functional, cell-based; details: Homo sapiens
Description: SANGER: Inhibition of human 769-P cell growth in a cell viability assay.

NCI-H522 = assay: cells; format: functional, cell-based; details: Homo sapiens;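 note: cell viability assay measuring growth inhibition of human NCI-H522 cells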
Description: SANGER: Inhibition of human NCI-H522 cell growth in a cell viability assay.

A-375 = assay: cells; format: functional, cell-based; details: Homo sapiens;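 note: growth inhibition of A375 cells, read out with a cell viability assay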
Description: SANGER: Inhibition of human A375 cell growth in a cell viability assay.

UACC-62 = assay: cells; format: functional, cell-based; details: Homo sapiens;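 note: growth inhibition of human UACC-62 cells, read out by a cell viability assay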
Description: SANGER: Inhibition of human UACC-62 cell growth in a cell viability assay.

ABC-1 = assay: cells; format: functional, cell-based; details: Homo sapiens;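 note: growth inhibition of human ABC-1 cells, read out by a cell viability assay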
Description: SANGER: Inhibition of human ABC-1 cell growth in a cell viability assay.

Capan-2 = assay: cells; format: functional, cell-based; details: Homo sapiens;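 note: Capan-2 cell growth inhibition, read out with a viability assay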
Description: SANGER: Inhibition of human Capan-2 cell growth in a cell viability assay.

KYSE-150 cell line = assay: cells; format: functional, cell-based; details: Homo sapiens;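 note: growth inhibition of human KYSE-150 cells, read out with a cell viability assay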
Description: SANGER: Inhibition of human KYSE-150 cell growth in a cell viability assay.

NALM-6 = assay: cells; format: functional, cell-based, Homo sapiens; details: Homo sapiens, NALM-6;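 note: growth inhibition of NALM-6 cells, read out with a cell viability assay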
Description: SANGER: Inhibition of human NALM-6 cell growth in a cell viability assay.

CAL-27 = assay: cells; format: functional, cell-based; details: Homo sapiens;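 note: Viability-based readout, IC50 reflecting inhibition of CAL-27 cell growth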
Description: SANGER: Inhibition of human CAL-27 cell growth in a cell viability assay.

KYSE-520 cell line = assay: cells; format: functional, cell-based; details: Homo sapiens;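 note: growth inhibition of human KYSE-520 cells, read out with a viability assay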
Description: SANGER: Inhibition of human KYSE-520 cell growth in a cell viability assay.

HCC1599 = assay: cells; format: functional, cell-based, Homo sapiens; details: Homo sapiens, HCC1599;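 note: growth inhibition of HCC1599 cells, read out in a cell viability assay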
Description: SANGER: Inhibition of human HCC1599 cell growth in a cell viability assay.

SCC-9 = assay: cells; format: functional, cell-based; details: Homo sapiens;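 note: Read-out is a cell viability assay, with values giving inhibition of cell growth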
Description: SANGER: Inhibition of human SCC-9 cell growth in a cell viability assay.

GDM-1 = assay: cells; format: functional, cell-based, Homo sapiens; details: Homo sapiens, GDM-1; read-out: IC50;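 note: cell viability readout used to measure growth inhibition of human GDM-1 cells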
Description: SANGER: Inhibition of human GDM-1 cell growth in a cell viability assay.

NCI-H1793 = assay: cells; format: functional, cell-based; details: Homo sapiens;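 note: cell growth inhibition, read out by a cell viability assay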
Description: SANGER: Inhibition of human NCI-H1793 cell growth in a cell viability assay.

NCI-H661 = assay: cells; format: functional, cell-based; details: Homo sapiens;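 note: cell viability assay read-out, IC50 being the concentration that inhibits growth of the cells by half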
Description: SANGER: Inhibition of human NCI-H661 cell growth in a cell viability assay.

NCI-H1882 = assay: cells; format: functional, cell-based, Homo sapiens; details: Homo sapiens, NCI-H1882;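 note: growth inhibition of the cell line, determined with a viability assay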
Description: SANGER: Inhibition of human NCI-H1882 cell growth in a cell viability assay.

SW1990 = assay: cells; format: functional, cell-based; details: Homo sapiens
Description: SANGER: Inhibition of human SW1990 cell growth in a cell viability assay.

SN12C = assay: cells; format: functional, cell-based; details: Homo sapiens;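 note: growth inhibition of human SN12C cells, measured by a cell viability assay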
Description: SANGER: Inhibition of human SN12C cell growth in a cell viability assay.

TCC-SUP = assay: cells; format: functional, cell-based; details: Homo sapiens;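 note: growth inhibition of TCC-SUP cells, read out with a cell viability assay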
Description: SANGER: Inhibition of human TCCSUP cell growth in a cell viability assay.

HCC1419 = assay: cells; format: functional, cell-based; details: Homo sapiens;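 note: growth inhibition of human HCC1419 cells, read out as cell viability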
Description: SANGER: Inhibition of human HCC1419 cell growth in a cell viability assay.

NCI-H460 = assay: cells; format: functional, cell-based; details: Homo sapiens;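 note: cell viability assay scoring growth inhibition of human NCI-H460 cells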
Description: SANGER: Inhibition of human NCI-H460 cell growth in a cell viability assay.

VM-CUB-1 = assay: cells; format: functional, cell-based; details: Homo sapiens
Description: SANGER: Inhibition of human VM-CUB-1 cell growth in a cell viability assay.

Measured: IC50

O=S(=O)(O)c1ccc2cc(/N=N/c3cc(S(=O)(=O)O)c4cccnc4c3O)ccc2c1
> 16 µM: Kasumi 1 | NCI-H2196 | BFTC-905 | OVCAR-8 | NCI-H1792 | HCC1954 | LK-2 | HMV-2 cell line | MHH-ES-1 | SAS | A204 | SW837 | NCI-H524 | PF-382 | SU-DHL-1 | HSC-4 | NCI-H2087 | SK-N-AS | J82 | T84 | NCI-H1651 | EB2 | HC-1 | NCI-H292 | NCI-H28 | OE33 | RL95-2 | NCI-H358 | HOS | Calu-3 | 5637 | A2780 | SCLC-21H | BCPAP | KOSC-2 | HCT-116 | RVH-421 | HO-1-N-1 | 769-P | NCI-H522 | A-375 | UACC-62 | ABC-1 | Capan-2 | KYSE-150 cell line | NALM-6 | CAL-27 | KYSE-520 cell line | HCC1599 | SCC-9 | GDM-1 | NCI-H1793 | NCI-H661 | NCI-H1882 | SW1990 | SN12C | TCC-SUP | HCC1419 | NCI-H460 | VM-CUB-1
